Assay results taken from publication PMC9879440, “Heterozygous deletion of Gpr55 does not affect a hyperthermia-induced seizure, spontaneous seizures or survival in the Scn1a^+/^- mouse model of Dravet syndrome” (PLOS ONE, 2023).
Several values for one entry are separate records, joined by “and”; a condition that tells them apart may be missing. Equal values may be shown once. Read-outs that look alike come from different tables or passages of the source.

Tests used:
[1] = test system: GPR55; design: method as in PubChem AID 2013; settings: image-based HTS; ref PubChem AID 2013; read-out: IC50 value as GPR55 antagonist; cited from earlier work
[2] = test system: F1.Scn1a+/- mice; experiment: Hyperthermia-induced seizures in F1.Scn1a+/- mouse model of Dravet syndrome; format: in vivo; design: key to Threshold temperature of individual mice for GTCS induced by hyperthermia: core body temperature in °C at first clonic convulsion
Protocol: Hyperthermia-induced seizure experiments were conducted on male and female F1.Scn1a^+/- and F1.Scn1a^+/-;Gpr55^+/- mice at P14-16 as previously described. Briefly, a RET-3 rectal temperature probe was inserted and mice acclimated for 5 min before mouse core body temperature was elevated 0.5°C every 2 min until the onset of first clonic convulsion with loss of posture or until 42.5°C was reached. For hyperthermia-induced seizure experiments with CID2921524, mice received a single i.p. injection of vehicle or CID2921524 at an injection volume of 10 mL/kg following the 5 min acclimation period.
(§1) Normality of each dataset was assessed using the Shapiro-Wilk test. Concentrations of CID2921524 in plasma and brain at each time point were averaged and pharmacokinetic parameters were calculated by noncompartmental analysis as previously described. Seizure threshold temperatures were compared using Mantel-Cox logrank test. Spontaneous seizure data were analysed using two-way ANOVA (seizure frequency and seizure severity), Fisher’s exact test (proportion of mice seizure-free) or Mantel-Cox logrank test (survival). RT-ddPCR data were analysed using two-way ANOVA. All results p < 0.05 were considered statistically significant.

[3] = Pharmacokinetic analysis in mouse plasma and brain after a single i.p. injection; format: in vivo
Protocol: A pharmacokinetic study was conducted for CID2921524 (MolPort; Riga, LVA) to determine the target experimental time point for the hyperthermia-induced seizure protocol. Male and female wildtype mice (P21-28) received a single intraperitoneal (i.p.) injection of 10 mg/kg CID2921524 in ethanol-Tween 80-saline (1:1:18) with an injection volume of 10 mL/kg. At selected time points, mice were anaesthetized with isoflurane and whole blood was collected via cardiac puncture. Plasma was isolated by centrifugation, whole brain was also collected and samples were stored at -80°C until assayed.
Plasma and brain samples were prepared for analysis of CID2921524 concentrations as previously described. Samples were assayed by LC-MS/MS using a Shimadzu Nexera ultra-HPLD coupled to a Shimadzu 8030 triple quadrupole mass spectrometer (Shimadzu Corp.; Kyoto, JPN) operated in positive electrospray ionization mode with multiple reaction monitoring with 376.3 > 121.1 and 376.2 > 77.0 mass transition pairs. Quantification was achieved by comparing experimental samples to standards prepared with known amounts of drug.
as §1

[4] = design: method as in PMID 28973916; settings: cited from earlier work
[5] = both sexes, brain, intraperitoneal, wildtype mice P21-28, 10 mg/kg i.p., n = 4, read-out: Brain concentration, average
[6] = both sexes, plasma, intraperitoneal, wildtype mice P21-28, 10 mg/kg i.p., n = 4, read-out: Plasma concentration, average

SMILES | IC50 [1] [nM] | Threshold temperature of individual mice for GTCS induced by hyperthermia ([2]; F1.Scn1a+/- mice P14-16, male and female, 10 mg/kg i.p. acute, one value per mouse, n = 12, core body temperature (°C), 10 mg/kg, in °C) | effect on a hyperthermia-induced seizure (GTCS temperature threshold) ([2]; F1.Scn1a+/- mice, 10 mg/kg i.p. vs vehicle, Mantel-Cox logrank) | brain penetrance ([3]; 10 mg/kg i.p.) | total concentration achieved in the brain ([3]; 10 mg/kg i.p., free-fraction unknown) | Kp ([3]; both sexes, brain and plasma, ip, 10 mg/kg i.p., read-out: brain-plasma ratio (total exposure by AUC values)) | concentration at 15 min [3, 5] [ng/g] | concentration at 30 min [3, 5] [ng/g] | concentration at 60 min [3, 5] [ng/g] | concentration at 90 min [3, 5] [ng/g] | concentration at 120 min [3, 5] [ng/g] | concentration at 15 min [3, 6] [ng/mL] | concentration at 30 min [3, 6] [ng/mL] | concentration at 45 min ([3]; both sexes, plasma, intraperitoneal, wildtype mice P21-28, 10 mg/kg i.p., 45 min, n = 4) [ng/mL] | concentration at 60 min [3, 6] [ng/mL] | concentration at 90 min [3, 6] [ng/mL] | concentration at 120 min [3, 6] [ng/mL] | absorption into plasma and brain ([3]; i.p. administration) | half-lives in plasma and brain ([3]; i.p. administration) | brain penetrance [4]
COc1ccc(CNCCC(c2ccccc2)c2ccc3c(c2)OCO3)cc1 (centres unmarked) [CID2921524] | 965 | 41.2 and 40.3 and 40.2 and 40.8 and 41.5 and 40.7 and 38.9 and 39.9 and 41 and 40.6 and 39.6 | no effect | brain penetrant | ~ 5 μM | 1.4 | 1820 | 1530 | 1210 | 1310 | 1550 | 1960 | 1420 | 1400 | 1370 | 1020 | 1090 | rapidly absorbed | relatively long half-lives | –
CCOc1ccc(N(CC)C(=O)c2nn(-c3ccc(OC)cc3)c(=O)c3c2c2ccccc2n3C)cc1 [CID16020064] | – | – | – | – | – | – | – | – | – | – | – | – | – | – | – | – | – | – | – | not brain penetrant
